Test results published in patent US9518018B2, “3-alkoxy, thioalkyl and amino-4-amino-6-(substituted)picolinates and their use as herbicides” (Dow AgroSciences LLC, priority 2011, dated 2016).

System: desired test plant species
Assay: Foliar-applied postemergence herbicidal activity in direct seeded rice (Table 6)
Type: in vivo
Settings: 21 DAA
Description: Seeds or nutlets of the desired test plant species were planted in a soil matrix prepared by mixing a loam soil (43 percent silt, 19 percent clay, and 38 percent sand, with a pH of about 8.1 and an organic matter content of about 1.5 percent) and river sand in an 80 to 20 ratio. The soil matrix was contained in plastic pots with a surface area of 139.7 cm^2. When required to ensure good germination and healthy plants, a fungicide treatment and/or other chemical or physical treatment was applied. The plants were grown for 10-17 d in a greenhouse with an approximate 14-h photoperiod which was maintained at about 29° C. during the day and 26° C. during the night. Nutrients and water were added on a regular basis and supplemental lighting was provided with overhead metal halide 1000-Watt lamps as necessary. The plants were employed for testing when they reached the second or third true leaf stage. Treatments consisted of compounds 45, 34, and 66. Weighed amounts of technical compounds were placed in individual 25 mL glass vials and dissolved in 8 mL of 97:3 v/v acetone-DMSO to obtain stock solutions. […] The spray application solutions were prepared by removing 4 mL of the stock solution and diluting with 4 mL of 97:3 v/v acetone-DMSO and continued serial dilution to obtain 1⁄2×, 1⁄4×, 1⁄8×, and 1/16× rates of the high rate. Spray solutions were diluted to the appropriate final concentrations with the addition of 8 mL of an aqueous mixture of 1.875% (v/v) Agri-dex crop oil concentrate. The final 12-mL spray solutions each contained 1.25% (v/v) Agri-dex crop oil concentrate, 32.3% acetone, and 1.0% DMSO. Compound requirements are based upon a 12 mL application volume at a rate of 187 L/ha. Spray solutions were applied to the plant material with an overhead Mandel track sprayer equipped with […] nozzles calibrated to deliver 187 L/ha over an application area of 0.503 square meters (m^2) at a spray height of 18 inches ([…]) above average plant canopy height. Control plants were sprayed in the same manner with the solvent blank. The treated plants and control plants were placed in a greenhouse as described above and watered by sub-irrigation to prevent wash-off of the test compounds. After approximately 3 weeks, the condition of the test plants, compared with that of the untreated plants, was determined visually and scored on a scale of 0 to 100 percent where 0 corresponds to no injury and 100 corresponds to complete kill. By applying the well-accepted probit analysis as described by J. Berkson in Journal of the […], 48, 565 (1953) and by D. Finney in “Probit Analysis” Cambridge University Press (1952) or by plotting the mean data and fitting a logarithmic curve to the portion of the data where there was a dose response using Microsoft Excel®, the above data can be used to calculate GR50 and GR90 values, which are defined as growth reduction factors that correspond to the effective dose of herbicide required to kill or control 50 percent or 90 percent, respectively, of a target plant.

SMILES: COC(=O)c1nc(-c2ccc(Cl)c(OC)c2F)c(F)c(N)c1OC [Compound 34]
- Mean Visual Injury (%)-21 Days After Application AESSE (AESSE (Aeschynomene sensitiva, sensitive jointvetch), 4.38 g ae/ha): 100%
- Mean Visual Injury (%)-21 Days After Application AESSE (AESSE (Aeschynomene sensitiva, sensitive jointvetch), 8.75 g ae/ha): 100%
- Mean Visual Injury (%)-21 Days After Application AESSE (AESSE (Aeschynomene sensitiva, sensitive jointvetch), 17.5 g ae/ha): 100%
- Mean Visual Injury (%)-21 Days After Application AESSE (AESSE (Aeschynomene sensitiva, sensitive jointvetch), 35 g ae/ha): 100%
- Mean Visual Injury (%)-21 Days After Application AESSE (AESSE (Aeschynomene sensitiva, sensitive jointvetch), 70 g ae/ha): 100%
- GR50 AESSE (AESSE (Aeschynomene sensitiva, sensitive jointvetch), dose to kill or control 50 percent): <4.38 g ae/ha
- GR90 AESSE (AESSE (Aeschynomene sensitiva, sensitive jointvetch), dose to kill or control 90 percent): <4.38 g ae/ha
- Mean Visual Injury (%)-21 Days After Application BRAPP (BRAPP (Brachiaria platyphylla, broadleaf signalgrass), 4.38 g ae/ha): 73%
- Mean Visual Injury (%)-21 Days After Application BRAPP (BRAPP (Brachiaria platyphylla, broadleaf signalgrass), 8.75 g ae/ha): 77%
- Mean Visual Injury (%)-21 Days After Application BRAPP (BRAPP (Brachiaria platyphylla, broadleaf signalgrass), 17.5 g ae/ha): 93%
- Mean Visual Injury (%)-21 Days After Application BRAPP (BRAPP (Brachiaria platyphylla, broadleaf signalgrass), 35 g ae/ha): 92%
- Mean Visual Injury (%)-21 Days After Application BRAPP (BRAPP (Brachiaria platyphylla, broadleaf signalgrass), 70 g ae/ha): 93%
- GR50 BRAPP (BRAPP (Brachiaria platyphylla, broadleaf signalgrass), dose to kill or control 50 percent): <4.38 g ae/ha
- GR90 BRAPP (BRAPP (Brachiaria platyphylla, broadleaf signalgrass), dose to kill or control 90 percent): 30.2 g ae/ha
- Mean Visual Injury (%)-21 Days After Application CYPDI (CYPDI (Cyperus difformis, small-flower flatsedge), 4.38 g ae/ha): 87%
- Mean Visual Injury (%)-21 Days After Application CYPDI (CYPDI (Cyperus difformis, small-flower flatsedge), 8.75 g ae/ha): 95%
- Mean Visual Injury (%)-21 Days After Application CYPDI (CYPDI (Cyperus difformis, small-flower flatsedge), 17.5 g ae/ha): 100%
- Mean Visual Injury (%)-21 Days After Application CYPDI (CYPDI (Cyperus difformis, small-flower flatsedge), 35 g ae/ha): 100%
- Mean Visual Injury (%)-21 Days After Application CYPDI (CYPDI (Cyperus difformis, small-flower flatsedge), 70 g ae/ha): 100%
- GR50 CYPDI (CYPDI (Cyperus difformis, small-flower flatsedge), dose to kill or control 50 percent): <4.38 g ae/ha
- GR90 CYPDI (CYPDI (Cyperus difformis, small-flower flatsedge), dose to kill or control 90 percent): 5.8 g ae/ha
- Mean Visual Injury (%)-21 Days After Application CYPES (CYPES (Cyperus esculentus, yellow nutsedge), 4.38 g ae/ha): 73%
- Mean Visual Injury (%)-21 Days After Application CYPES (CYPES (Cyperus esculentus, yellow nutsedge), 8.75 g ae/ha): 73%
- Mean Visual Injury (%)-21 Days After Application CYPES (CYPES (Cyperus esculentus, yellow nutsedge), 17.5 g ae/ha): 85%
- Mean Visual Injury (%)-21 Days After Application CYPES (CYPES (Cyperus esculentus, yellow nutsedge), 35 g ae/ha): 95%
- Mean Visual Injury (%)-21 Days After Application CYPES (CYPES (Cyperus esculentus, yellow nutsedge), 70 g ae/ha): 100%
- GR50 CYPES (CYPES (Cyperus esculentus, yellow nutsedge), dose to kill or control 50 percent): <4.38 g ae/ha
- GR90 CYPES (CYPES (Cyperus esculentus, yellow nutsedge), dose to kill or control 90 percent): 27.4 g ae/ha
- Mean Visual Injury (%)-21 Days After Application CYPIR (CYPIR (Cyperus iria, rice flatsedge), 4.38 g ae/ha): 83%
- Mean Visual Injury (%)-21 Days After Application CYPIR (CYPIR (Cyperus iria, rice flatsedge), 8.75 g ae/ha): 97%
- Mean Visual Injury (%)-21 Days After Application CYPIR (CYPIR (Cyperus iria, rice flatsedge), 17.5 g ae/ha): 98%
- Mean Visual Injury (%)-21 Days After Application CYPIR (CYPIR (Cyperus iria, rice flatsedge), 35 g ae/ha): 100%
- Mean Visual Injury (%)-21 Days After Application CYPIR (CYPIR (Cyperus iria, rice flatsedge), 70 g ae/ha): 100%
- GR50 CYPIR (CYPIR (Cyperus iria, rice flatsedge), dose to kill or control 50 percent): <4.38 g ae/ha
- GR90 CYPIR (CYPIR (Cyperus iria, rice flatsedge), dose to kill or control 90 percent): 6.7 g ae/ha
- Mean Visual Injury (%)-21 Days After Application ECHCG (ECHCG (Echinochloa crus-galli, barnyardgrass), 4.38 g ae/ha): 93%
- Mean Visual Injury (%)-21 Days After Application ECHCG (ECHCG (Echinochloa crus-galli, barnyardgrass), 8.75 g ae/ha): 93%
- Mean Visual Injury (%)-21 Days After Application ECHCG (ECHCG (Echinochloa crus-galli, barnyardgrass), 17.5 g ae/ha): 96%
- Mean Visual Injury (%)-21 Days After Application ECHCG (ECHCG (Echinochloa crus-galli, barnyardgrass), 35 g ae/ha): 98%
- Mean Visual Injury (%)-21 Days After Application ECHCG (ECHCG (Echinochloa crus-galli, barnyardgrass), 70 g ae/ha): 95%
- GR50 ECHCG (ECHCG (Echinochloa crus-galli, barnyardgrass), dose to kill or control 50 percent): <4.38 g ae/ha
- GR90 ECHCG (ECHCG (Echinochloa crus-galli, barnyardgrass), dose to kill or control 90 percent): <4.38 g ae/ha
- Mean Visual Injury (%)-21 Days After Application ECHCO (ECHCO (Echinochloa colonum, junglerice), 4.38 g ae/ha): 70%
- Mean Visual Injury (%)-21 Days After Application ECHCO (ECHCO (Echinochloa colonum, junglerice), 8.75 g ae/ha): 80%
- Mean Visual Injury (%)-21 Days After Application ECHCO (ECHCO (Echinochloa colonum, junglerice), 17.5 g ae/ha): 92%
- Mean Visual Injury (%)-21 Days After Application ECHCO (ECHCO (Echinochloa colonum, junglerice), 35 g ae/ha): 97%
- Mean Visual Injury (%)-21 Days After Application ECHCO (ECHCO (Echinochloa colonum, junglerice), 70 g ae/ha): 98%
- GR50 ECHCO (ECHCO (Echinochloa colonum, junglerice), dose to kill or control 50 percent): <4.38 g ae/ha
- GR90 ECHCO (ECHCO (Echinochloa colonum, junglerice), dose to kill or control 90 percent): 18.6 g ae/ha
- Mean Visual Injury (%)-21 Days After Application LEFCH (LEFCH (Leptochloa chinensis, Chinese sprangletop), 4.38 g ae/ha): 0%
- Mean Visual Injury (%)-21 Days After Application LEFCH (LEFCH (Leptochloa chinensis, Chinese sprangletop), 8.75 g ae/ha): 17%
- Mean Visual Injury (%)-21 Days After Application LEFCH (LEFCH (Leptochloa chinensis, Chinese sprangletop), 17.5 g ae/ha): 30%
- Mean Visual Injury (%)-21 Days After Application LEFCH (LEFCH (Leptochloa chinensis, Chinese sprangletop), 35 g ae/ha): 40%
- Mean Visual Injury (%)-21 Days After Application LEFCH (LEFCH (Leptochloa chinensis, Chinese sprangletop), 70 g ae/ha): 37%
- GR50 LEFCH (LEFCH (Leptochloa chinensis, Chinese sprangletop), dose to kill or control 50 percent): >70 g ae/ha
- GR90 LEFCH (LEFCH (Leptochloa chinensis, Chinese sprangletop), dose to kill or control 90 percent): >70 g ae/ha
- Mean Visual Injury (%)-21 Days After Application ORYSA ‘Clearfield 171’ (ORYSA (Oryza sativa ‘Clearfield 171’, rice), 4.38 g ae/ha): 0%
- Mean Visual Injury (%)-21 Days After Application ORYSA ‘Clearfield 171’ (ORYSA (Oryza sativa ‘Clearfield 171’, rice), 8.75 g ae/ha): 3%
- Mean Visual Injury (%)-21 Days After Application ORYSA ‘Clearfield 171’ (ORYSA (Oryza sativa ‘Clearfield 171’, rice), 17.5 g ae/ha): 12%
- Mean Visual Injury (%)-21 Days After Application ORYSA ‘Clearfield 171’ (ORYSA (Oryza sativa ‘Clearfield 171’, rice), 35 g ae/ha): 23%
- Mean Visual Injury (%)-21 Days After Application ORYSA ‘Clearfield 171’ (ORYSA (Oryza sativa ‘Clearfield 171’, rice), 70 g ae/ha): 22%
- GR50 ORYSA ‘Clearfield 171’ (ORYSA (Oryza sativa ‘Clearfield 171’, rice), dose to kill or control 50 percent): >70 g ae/ha
- GR90 ORYSA ‘Clearfield 171’ (ORYSA (Oryza sativa ‘Clearfield 171’, rice), dose to kill or control 90 percent): >70 g ae/ha
- Mean Visual Injury (%)-21 Days After Application ORYSA ‘Wells’ (ORYSA (Oryza sativa ‘Wells’, rice), 4.38 g ae/ha): 0%
- Mean Visual Injury (%)-21 Days After Application ORYSA ‘Wells’ (ORYSA (Oryza sativa ‘Wells’, rice), 8.75 g ae/ha): 0%
- Mean Visual Injury (%)-21 Days After Application ORYSA ‘Wells’ (ORYSA (Oryza sativa ‘Wells’, rice), 17.5 g ae/ha): 3%
- Mean Visual Injury (%)-21 Days After Application ORYSA ‘Wells’ (ORYSA (Oryza sativa ‘Wells’, rice), 35 g ae/ha): 8%
- Mean Visual Injury (%)-21 Days After Application ORYSA ‘Wells’ (ORYSA (Oryza sativa ‘Wells’, rice), 70 g ae/ha): 7%
- GR50 ORYSA ‘Wells’ (ORYSA (Oryza sativa ‘Wells’, rice), dose to kill or control 50 percent): >70 g ae/ha
- GR90 ORYSA ‘Wells’ (ORYSA (Oryza sativa ‘Wells’, rice), dose to kill or control 90 percent): >70 g ae/ha
- Mean Visual Injury (%)-21 Days After Application SCPJU (SCPJU (Scirpus juncoides, Japanese bulrush), 4.38 g ae/ha): 100%
- Mean Visual Injury (%)-21 Days After Application SCPJU (SCPJU (Scirpus juncoides, Japanese bulrush), 8.75 g ae/ha): 100%
- Mean Visual Injury (%)-21 Days After Application SCPJU (SCPJU (Scirpus juncoides, Japanese bulrush), 17.5 g ae/ha): 100%
- Mean Visual Injury (%)-21 Days After Application SCPJU (SCPJU (Scirpus juncoides, Japanese bulrush), 35 g ae/ha): 100%
- Mean Visual Injury (%)-21 Days After Application SCPJU (SCPJU (Scirpus juncoides, Japanese bulrush), 70 g ae/ha): 100%
- GR50 SCPJU (SCPJU (Scirpus juncoides, Japanese bulrush), dose to kill or control 50 percent): <4.38 g ae/ha
- GR90 SCPJU (SCPJU (Scirpus juncoides, Japanese bulrush), dose to kill or control 90 percent): <4.38 g ae/ha
- Mean Visual Injury (%)-21 Days After Application SEBEX (SEBEX (Sesbania exaltata, hemp sesbania), 4.38 g ae/ha): 100%
- Mean Visual Injury (%)-21 Days After Application SEBEX (SEBEX (Sesbania exaltata, hemp sesbania), 8.75 g ae/ha): 100%
- Mean Visual Injury (%)-21 Days After Application SEBEX (SEBEX (Sesbania exaltata, hemp sesbania), 17.5 g ae/ha): 100%
- Mean Visual Injury (%)-21 Days After Application SEBEX (SEBEX (Sesbania exaltata, hemp sesbania), 35 g ae/ha): 100%
- Mean Visual Injury (%)-21 Days After Application SEBEX (SEBEX (Sesbania exaltata, hemp sesbania), 70 g ae/ha): 100%
- GR50 SEBEX (SEBEX (Sesbania exaltata, hemp sesbania), dose to kill or control 50 percent): <4.38 g ae/ha
- GR90 SEBEX (SEBEX (Sesbania exaltata, hemp sesbania), dose to kill or control 90 percent): <4.38 g ae/ha
